{"source": "patent US11554124B2", "about": "“Hematopoiesis-enhancing agent” (priority 2018, dated 2023)", "type_in_all_cases": "in vivo, mouse", "key": {"[1]": {"system": "BM erythroblast subset II", "assay": "RNA sequencing / RT-PCR of BM erythroblast subset II of treated mice", "method": "Total RNA was isolated by using the RNeasy kit (Qiagen) from the sorted sample of bone marrow subset II erythroblasts (PBS; n=4, CLEU; n=4). The quality of the isolated RNA ([…]) was checked using a 2100 bioanalyzer (Agilent), and 250 ng of the RNA was used as input for library preparation in accordance with the manufacturer's instructions using the TruSeq Stranded mRNA Library Prep Kit (Illumina). High-throughput sequencing (51 bp, single-ended) was performed using Hiseq2500 Rapid mode v2 (Illumina). Sequenced reads were mapped to the reference mouse genome (mm9) by using bowtie2 version 2.2.5 and tophat version 2.1.0, and then the abundances of transcripts were estimated by using cufflinks version 2.2.1. Gene expression levels were normalized to the average of fragments per kilobase of transcript per million mapped reads (FPKM) value. Individually expressed genes with FPKM>10 and CV<0.5 (under at least one of the two conditions) were used for further analysis (log2 FC<−0.5 or log2 FC>0.5, P<0.05 within each condition).\nFor the purpose of elucidating the mechanism of the maturation of erythroblasts induced by CLEU treatment, RNA sequencing analysis of BM erythroblast subset II was performed. […] According to previous reports which had shown the contributory role of CD163 and Apoe in erythropoiesis, up-regulation of CD163 and/or Apoe is necessary for proper use of heme and/or lipid membrane synthesis during the maturation of erythroblasts. […] Considering the fact that abnormalities in globin genes cause the maturation defects in erythroblasts in disorders such as thalassemia, up-regulation of these genes, on the other hand, could be the driving force for the final maturation stage of erythroblasts."}, "[2]": {"system": "trimethylation of lysine 9 of histone H3 (H3K9me3)", "assay": "Western blot of H3K9me3 in bone marrow erythroblast subset II", "conditions": "CLEU, BM erythroblast subset II, Day 2, vs PBS", "from_the_text": "FIG. 4 is the experimental result showing that epigenetic demethylation induces the final maturation of erythroblasts. Panel A: WGBS (whole genome bisulfite sequencing) results of bone marrow erythroblast subset II harvested from CLEU or PBS treated mouse (Day 2) (CLEU; n=2, PBS; n=2). Panel B: Difference in expression levels versus difference in CpG methylation of the promoter for all expressed genes (at least one of FPKM>10 and CV<0.5). The correlation (Cor) was −0.08. […] The correlation (Cor) was −0.11. Panel D: Images (photographs) showing western blot (WB) results of trimethylation of lysine 9 of histone H3 (H3K9me3) on bone marrow erythroblast subset II harvested from CLEU or PBS treated mouse (Day 2). Panels E-G: In vitro red blood cell differentiation of Human CD34^+ cord blood cells. Panel E: Representative results of flow cytometric analysis. Panel F: Cumulative results for the indicated cell population. Panel G: Cumulative results for CD34 EMI (CD34 red blood cell maturation index: CD71^+ GlyA^+/CD71^+ GlyA^−). Each point shown in the box plots represents each technical replicate. Asterisk indicates P<0.001.\n(§1) The overall transcriptional changes observed as above could be attributed to epigenetic modification changes due to the reduced abundance of intracellular SAM (Panel A of FIG. 2). […]"}, "DNA CpG methylation": {"system": "DNA CpG methylation", "assay": "Whole genome bisulfite sequencing (WGBS) of bone marrow erythroblast subset II", "conditions": "CLEU, BM erythroblast subset II, Day 2, vs PBS", "method": "DNA was isolated by using phenol/chloroform extraction from sorted sample of bone marrow subset II erythroblasts (PBS; n=2, CLEU; n=2). DNA quality control, bisulfite conversion, library preparation, high-throughput sequencing, and data mapping were performed at Macrogen, Inc. Briefly, TruSeq DNA Methylation Kit and EZ DNA Methylation Gold (Illumina and Zymo Research) were used for library preparation according to the manufacturer's protocol (TruSeq DNA Methylation Library Preparation Guide), followed by high-throughput sequencing by HiseqX (Illumina). After the sequencing run, the raw sequence reads were filtered based on quality, and the adapter sequences were trimmed off. The remaining reads are mapped to the reference genome (mm9) using BSMAP based on SOAP (Short Oligo Alignment Program). SAMBAMBA version 0.5.9 was used to remove index and PCR duplicates, and to select reads with modification. Methylation level was calculated for every single cytosine from mapping results using BSMAP version 2.87. Only cytosine positions with >=5 reads coverage were used for further analysis.\nas §1"}, "[3]": {"system": "SAM present in erythroblasts", "assay": "Abundance of SAM in bone marrow erythroblasts of treated mice (mass spectrometry)", "conditions": "CLEU 50 mg/body i.p., bone marrow subset II, Day 2, vs PBS", "method": "Wild-type mice with a genetic background of C57BL/6J were purchased from Charles River Laboratories, Inc. Mice at 8 to 14 weeks of age were used for analysis. For CLEU treatment (50 mg/body), a solution of cycloleucine (CLEU) was prepared by diluting cycloleucine (CLEU) (Sigma) in PBS (50 mg/ml), and 1 ml of the CLEU solution was administered intraperitoneally. For AKBA treatment (2 mg/body), 2 mg AKBA (Enzo Life Sciences)/20% DMSO/1 mL PBS solution was administered intraperitoneally. Vehicle without AKBA was used as a control. For measuring complete blood count of peripheral blood, peripheral blood was collected from facial veins and counted by use of an automated animal blood cell counter (microsemi LC-662). All of the experiments conducted in this study were approved by the Animal Experiment Committee of the Environmental Safety Committee of Tohoku University. BM cells and spleen cells were harvested in a conventional manner. Cells were stained with combinations of antibodies specific to erythroblasts and mature cells, to thereby identify them. The cells were visualized with antibody and streptavidin-peridinin chlorophyll protein-cyanin 5.5. […] Flow cytometric analysis and cell sorting were performed according to the manufacturer's protocol using FACS AriaII (BD), and then the obtained data were analyzed using FlowJo software (TreeStar). […]"}, "[4]": {"conditions": "CLEU, subset II, Day 2, RT-PCR normalized to Actb"}}}
{"smiles": "NC1(C(=O)O)CCCC1", "note": "[CLEU, cycloleucine]", "values": [{"measurement": "number of genes identified as significantly up-regulated", "setting": "[1]; CLEU, BM erythroblast subset II, Day 2, RNA sequencing, vs PBS", "value": 72, "unit": "genes"}, {"measurement": "expression of Gata1, Tal1, and Klf1", "setting": "[1]; CLEU, BM erythroblast subset II, Day 2, vs PBS", "value": "significantly down-regulated"}, {"measurement": "expression of Myb, Cited2 and H1f0", "setting": "[1]; [4]", "value": "significantly up-regulated"}, {"measurement": "expression of hemoglobin-related genes, CD163 and Apoe (validation analysis)", "setting": "[1]; [4]", "value": "significantly up-regulated"}, {"measurement": "expression levels of several histone methyltransferase", "setting": "[1]; CLEU, subset II, RNA sequencing", "value": "significantly down-regulated"}, {"measurement": "expression of globin genes", "setting": "[1]; CLEU-treated erythroblasts, subset II, Day 2", "value": "most heavily expressed"}, {"measurement": "trimethylation of H3K9", "setting": "[2]", "value": "decreased"}, {"measurement": "reduction of DNA CpG methylation overall", "setting": "DNA CpG methylation", "value": "about 2%"}, {"measurement": "abundance of SAM present in erythroblasts", "setting": "[3]", "value": "reduce the abundance of SAM"}]}
